Measurements as given in patent US8178579B2, “Dioxanes and uses thereof” (President and Fellows of Harvard College, priority 2001, dated 2012).

Tested on: HeLa cells
Assay: high throughput microscopy of HeLa cells
Type: cell-based
Settings: single-compound assays
Excerpt: The cellular basis of these phenotypes has not been investigated. No phenotypes consistent with mitotic arrest were observed.

O=S(=O)(NCc1ccc(C2O[C@H](CSc3ccc(O)cc3)C[C@H](c3ccc(CO)cc3)O2)cc1)c1ccccc1 (mixture of isomers) [compound 12, (±)-N-[[4-(4R,6S)-4-[4-(hydroxymethyl)phenyl]-6-[[4-hydroxyphenyl)thio]methyl]-1,3-dioxan-2-yl]phenyl]methyl-benzenesulfonamide]
phenotype in HeLa cells by microscopy: altered actin staining phenotype
